Patent publication US20240239755A1, “SUBSTITUTED PYRIDAZINONES, SALTS OR N-OXIDES THEREOF AND THEIR USE AS HERBICIDALLY ACTIVE SUBSTANCES” (Bayer Aktiengesellschaft, priority 2021, published 2024)

Assays:
Type in all cases: in vivo
[1] = tested on: Amaranthus retroflexus (AMARE); experiment: Herbicidal pre-emergence action, 1280 g/ha (Table A11); settings: visual grading after ca. 3 weeks vs untreated controls
From the text: (§1) Seeds of mono- and dicotyledonous weed plants were sown in plastic pots (double sowings with one species of mono- and one species of dicotyledonous weed plants per pot), in sandy loam, and covered with soil. The compounds according to the invention, formulated in the form of wettable powders (WP) or as emulsifiable concentrates (EC), were applied to the surface of the covering soil as an aqueous suspension or as an emulsion, with the addition of 0.5% of an additive, at an application rate of 600 litres of water per hectare (converted). Following treatment, the pots were placed in a greenhouse and kept under optimum growth conditions for the test plants. The visual grading of the damage to the test plants was carried out after ca. 3 weeks in comparison to untreated controls (herbicidal effect in percent (%): 100% effect=plants have died, 0% effect=as control plants). Tables A1 to A11 below, show the effects of selected compounds of the general formula (I) according to Table 1 on various harmful plants and an application rate corresponding to 1280 g/ha obtained by the experimental procedure mentioned above.

Stellaria media (STEME) [2] = experiment: Herbicidal post-emergence action, 1280 g/ha (Table B9); settings: visual assessment after ca. 3 weeks vs untreated controls
From the text: (§2) Seeds of mono- and dicotyledonous weed plants were sown in plastic pots (double sowings with one species of mono- and one species of dicotyledonous weed plants per pot), in sandy loam, covered with soil and grown under controlled growth conditions. 2 to 3 weeks after sowing, the test plants were sprayed in the single-leaf stage. The compounds according to the invention, formulated in the form of wettable powders (WP) or as emulsifiable concentrates (EC), were sprayed onto the green plant parts as an aqueous suspension or as an emulsion, with the addition of 0.5% of an additive, at an application rate of 600 litres of water per hectare (converted). The test plants were placed in the greenhouse for ca. 3 weeks under optimum growth conditions, and then the effect of the preparations was assessed visually in comparison with untreated controls (herbicidal effect in percent (%): 100% effect=plants have died, 0% effect=as control plants). Tables B1 to B11 below, show the effects of selected compounds of the general formula (I) according to Table 1 on various harmful plants using an application rate corresponding to 1280 g/ha obtained by the experimental procedure mentioned above.

[3] = tested on: Amaranthus retroflexus (AMARE); experiment: Herbicidal post-emergence action, 1280 g/ha, AMARE; settings: visual grading vs untreated controls
From the text: as §2, with “plants).” for “plants). Tables B1 to B11 below, show the effects of selected compounds of the general formula (I) according to Table 1 on various harmful plants using an application rate corresponding to 1280 g/ha obtained by the experimental procedure mentioned above.”
(§3) Tables B1 to B11 below, show the effects of selected compounds of the general formula (I) according to Table 1 on various harmful plants using an application rate corresponding to 1280 g/ha obtained by the experimental procedure mentioned above.

[4] = tested on: Amaranthus retroflexus (AMARE); experiment: Herbicidal post-emergence action, 320 g/ha, AMARE; settings: visual grading after ca. 3 weeks
From the text: as §2, with “plants).” for “plants). Tables B1 to B11 below, show the effects of selected compounds of the general formula (I) according to Table 1 on various harmful plants using an application rate corresponding to 1280 g/ha obtained by the experimental procedure mentioned above.”
(§4) Tables D1 to D8 below, show the effects of selected compounds of the general formula (I) according to Table 1 on various harmful plants using an application rate corresponding to 320 g/ha obtained by the experimental procedure mentioned above.

Stellaria media (STEME) [5] = experiment: Herbicidal pre-emergence action, 1280 g/ha (Table A9); settings: visual grading after ca. 3 weeks vs untreated controls
From the text: as §1

[6] = tested on: Matricaria inodora (MATIN); experiment: Herbicidal pre-emergence action, 1280 g/ha (Table A6); settings: visual grading after ca. 3 weeks vs untreated controls
From the text: as §1

Lolium rigidum (LOLRI) = experiment: Herbicidal pre-emergence action, 1280 g/ha (Table A5); settings: visual grading after ca. 3 weeks vs untreated controls
From the text: as §1

Veronica persica (VERPE) = experiment: Herbicidal post-emergence action, 1280 g/ha, VERPE; settings: visual grading vs untreated controls
From the text: as §2, with “plants).” for “plants). Tables B1 to B11 below, show the effects of selected compounds of the general formula (I) according to Table 1 on various harmful plants using an application rate corresponding to 1280 g/ha obtained by the experimental procedure mentioned above.”
as §3

Stellaria media (STEME) [7] = experiment: Herbicidal pre-emergence action, 320 g/ha, STEME; settings: visual grading after ca. 3 weeks
From the text: as §1, with “plants).” for “plants). Tables A1 to A11 below, show the effects of selected compounds of the general formula (I) according to Table 1 on various harmful plants and an application rate corresponding to 1280 g/ha obtained by the experimental procedure mentioned above.”
Tables C1 to C6 below, show the effects of selected compounds of the general formula (I) according to Table 1 on various harmful plants using an application rate corresponding to 320 g/ha obtained by the experimental procedure mentioned above.

[8] = tested on: Abutilon theophrasti (ABUTH); experiment: Herbicidal post-emergence action, 1280 g/ha (Table B1); settings: visual assessment after ca. 3 weeks vs untreated controls
From the text: as §2

[9] = tested on: Matricaria inodora (MATIN); experiment: Herbicidal post-emergence action, 1280 g/ha (Table B6); settings: visual assessment after ca. 3 weeks vs untreated controls
From the text: as §2

Stellaria media (STEME) [10] = experiment: Herbicidal post-emergence action, 320 g/ha, STEME; settings: visual grading after ca. 3 weeks
From the text: as §2, with “plants).” for “plants). Tables B1 to B11 below, show the effects of selected compounds of the general formula (I) according to Table 1 on various harmful plants using an application rate corresponding to 1280 g/ha obtained by the experimental procedure mentioned above.”
as §4

[11] = tested on: Abutilon theophrasti (ABUTH); experiment: Herbicidal post-emergence action, 320 g/ha, ABUTH; settings: visual grading after ca. 3 weeks
From the text: as §2, with “plants).” for “plants). Tables B1 to B11 below, show the effects of selected compounds of the general formula (I) according to Table 1 on various harmful plants using an application rate corresponding to 1280 g/ha obtained by the experimental procedure mentioned above.”
as §4

Kochia scoparia (KCHSC) = experiment: Herbicidal post-emergence action, 1280 g/ha (Table B4); settings: visual assessment after ca. 3 weeks vs untreated controls
From the text: as §2

Structure (SMILES) | herbicidal effect AMARE [1] | herbicidal effect STEME (Stellaria media (STEME) [2]) | herbicidal effect AMARE [3] | herbicidal effect STEME (Stellaria media (STEME) [5]) | herbicidal effect MATIN [6] | herbicidal effect LOLRI (Lolium rigidum (LOLRI)) | herbicidal effect ABUTH [8] | herbicidal effect MATIN [9] | also measured
Cc1nn(C)c(=O)c(Oc2ccccc2)c1O [Example I-001] | 90% |  |  |  |  |  |  |  | 
Cc1nn(C)c(=O)c(Oc2cccc(C(F)(F)F)c2)c1O [Example I-005] | 100% | 90% | 100% |  |  |  |  |  | herbicidal effect AMARE [4]: 90%
Cc1cccc(Cl)c1Oc1c(O)c(C)nn(C)c1=O [Example I-023] | 90% | 90% | 90% | 90% | 90% |  |  |  | 
COc1ccccc1Oc1c(O)c(C)nn(C)c1=O [Example I-024] |  | 90% | 90% | 90% |  | 90% |  |  | herbicidal effect VERPE (Veronica persica (VERPE)): 90%
Cc1nn(C)c(=O)c(Oc2cccc(F)c2Cl)c1O [Example I-025] |  |  |  | 100% | 100% |  |  |  | herbicidal effect STEME (Stellaria media (STEME) [7]): 100%
Cc1ccc(Oc2c(O)c(C)nn(C)c2=O)c(C2CC2)c1 [Example I-037] |  | 90% |  |  |  |  |  |  | 
CCOC(=O)Oc1c(C)nn(C)c(=O)c1Oc1ccc(C)cc1C1CC1 [Example I-038] |  |  | 90% |  |  |  | 90% |  | 
Cc1ccc(C2CC2)c(Oc2c(O)c(C)nn(C)c2=O)c1 [Example I-039] | 90% | 90% | 90% |  |  |  |  |  | 
CCOC(=O)Oc1c(C)nn(C)c(=O)c1Oc1cc(C)ccc1C1CC1 [Example I-040] |  |  | 90% |  |  |  |  |  | 
CCOC(=O)Oc1c(C)nn(C)c(=O)c1Oc1cccc(C)c1C1CC1 [Example I-066] | 100% | 100% |  |  | 90% |  | 90% | 90% | 
Cc1nn(C)c(=O)c(Oc2ccccc2OC(F)F)c1O [Example I-082] |  | 100% | 90% | 90% | 90% | 90% | 100% | 90% | herbicidal effect STEME (Stellaria media (STEME) [10]): 90%; herbicidal effect ABUTH [11]: 90%; herbicidal effect VERPE (Veronica persica (VERPE)): 90%
Cc1nn(C)c(=O)c(Oc2c(F)cccc2C2CC2)c1O [Example I-084] |  | 90% | 90% |  |  | 90% | 90% |  | herbicidal effect KCHSC (Kochia scoparia (KCHSC)): 90%; herbicidal effect AMARE [4]: 90%; herbicidal effect VERPE (Veronica persica (VERPE)): 90%
Cc1nn(C)c(=O)c(Oc2cc(F)ccc2Br)c1OC(=O)C(C)C [Example I-089] |  |  | 100% | 90% | 100% | 90% | 90% | 90% | 
Cc1nn(C)c(=O)c(Oc2cc(F)cc(F)c2Br)c1O [Example I-090] | 90% | 90% | 90% | 100% | 90% | 90% |  | 90% | herbicidal effect STEME (Stellaria media (STEME) [7]): 90%
Cc1nn(C)c(=O)c(Oc2cc(F)cc(F)c2Br)c1OC(=O)C(C)C [Example I-099] |  | 90% | 90% | 90% | 90% |  | 100% | 90% | herbicidal effect KCHSC (Kochia scoparia (KCHSC)): 90%; herbicidal effect STEME (Stellaria media (STEME) [10]): 90%; herbicidal effect VERPE (Veronica persica (VERPE)): 90%; herbicidal effect STEME (Stellaria media (STEME) [7]): 90%
Cc1nn(C)c(=O)c(Oc2cc(Cl)cc(Cl)c2Cl)c1OC(=O)C(C)C [Example I-100] |  | 100% | 90% | 100% |  | 90% | 90% |  | herbicidal effect STEME (Stellaria media (STEME) [10]): 90%; herbicidal effect STEME (Stellaria media (STEME) [7]): 100%
